Data reported in ChEMBL document CHEMBL1201862, “PubChem BioAssay data set” (2004).
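Method: 48-hour compound exposure of cells in 96-well plates, five concentrations, linear interpolation of endpoints. Abbreviation: GI50, concentration required for 50% inhibition of growth.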 Activity calls are given as the source filed them. No stated cut-off is given here; in the data, active = GI50 up to about 1.1 µM and inactive = higher.

Tests used:
Experiment in all cases: NCI tumour cell line growth inhibition, 48 h
[1] = tested on: A498
[2] = tested on: COLO 205
[3] = tested on: HOP-92
[4] = tested on: K562
[5] = tested on: LOX IMVI
[6] = tested on: NCI-H23
[7] = tested on: NCI-H522
[8] = tested on: OVCAR-8
[9] = tested on: RPMI-8226
[10] = tested on: RXF 393
[11] = tested on: SF-268
[12] = tested on: SF-295
[13] = tested on: SR
[14] = tested on: TK-10
[15] = tested on: U-251
[16] = tested on: UACC-257
[17] = tested on: UO-31

Measured: GI50

O=[N+]([O-])c1ccc(COc2cccc3cccnc23)cc1
inactive: [1] 34.8 µM | [2] 17.2 µM | [3] 31 µM | [4] 11.3 µM | [5] 11.7 µM | [6] 20 µM | [7] 4.53 µM | [8] 20.5 µM | [9] 13 µM | [10] 43.5 µM | [11] 19.9 µM | [12] 26.6 µM | [13] 3.47 µM | [14] 15.8 µM | [15] 10 µM | [16] 20.2 µM | [17] 10.1 µM

Nc1nc(=O)[nH]c2c1cnn2C1CCCCO1 (stereo not given)
inactive: [1] > 100 µM | [2] > 100 µM | [3] > 100 µM | [4] > 100 µM | [5] > 100 µM | [6] > 100 µM | [8] > 100 µM | [9] > 100 µM | [10] 56 µM | [11] > 100 µM | [12] > 100 µM | [13] 56 µM | [14] > 100 µM | [15] > 100 µM | [16] > 100 µM | [17] > 100 µM

CCC(C)CN1C(=O)NC(Cc2ccccc2)C1=O (stereo not given)
inactive: [3] 19.4 µM | [5] > 100 µM | [6] > 100 µM | [7] > 100 µM | [8] > 100 µM | [10] > 100 µM | [11] > 100 µM | [12] > 100 µM | [13] > 100 µM | [14] > 100 µM | [15] > 100 µM | [16] 22.1 µM | [17] > 100 µM

O=C(Nc1ccc(Cl)cc1Cl)/C(Cl)=C1/Sc2ccccc2NC1=O
inactive: [1] 66.4 µM | [2] 26.6 µM | [3] 16.8 µM | [4] 29.6 µM | [5] 40.6 µM | [6] 19.6 µM | [7] 18.8 µM | [8] 50.5 µM | [9] 24 µM | [10] 27.9 µM | [11] 26.7 µM | [14] 73.5 µM | [15] 32.3 µM | [17] 30 µM

CC(C)=CC(=O)Cc1nc2ccccc2[nH]c1=O
inactive: [1] > 100 µM | [2] > 100 µM | [3] 22.4 µM | [4] > 100 µM | [5] > 100 µM | [6] > 100 µM | [9] > 100 µM | [10] 18.4 µM | [11] > 100 µM | [12] 64 µM | [13] > 100 µM | [14] > 100 µM | [15] > 100 µM | [16] > 100 µM | [17] 68.7 µM

C=C=CC(NC(=O)c1ccccc1)(C(=O)O)C(F)(F)F (stereo not given)
inactive: [1] > 100 µM | [2] > 100 µM | [3] > 100 µM | [4] > 100 µM | [5] > 100 µM | [6] > 100 µM | [8] > 100 µM | [9] > 100 µM | [10] > 100 µM | [11] > 100 µM | [12] > 100 µM | [13] > 100 µM | [14] > 100 µM | [15] > 100 µM | [16] > 100 µM

COC(=O)[C@H]1N[C@@H](C(=O)OC)C23CCC[C@H]2CC[C@]1(C(OC)OC)C3
inactive: [1] > 100 µM | [2] 87.7 µM | [3] > 100 µM | [4] 73.6 µM | [5] > 100 µM | [6] > 100 µM | [7] > 100 µM | [8] > 100 µM | [9] > 100 µM | [11] > 100 µM | [12] > 100 µM | [14] > 100 µM | [15] > 100 µM | [16] > 100 µM | [17] > 100 µM

Nc1nc(N)c2nc(-c3ccco3)cnc2n1
inactive: [1] 42.2 µM | [2] 65.6 µM | [3] 40 µM | [4] 33.7 µM | [5] 30.9 µM | [6] 75 µM | [7] 50.2 µM | [8] > 100 µM | [9] > 100 µM | [10] 26.2 µM | [11] > 100 µM | [12] 60.3 µM | [13] 39.9 µM | [14] 88.1 µM | [15] 34.1 µM | [16] 92.7 µM | [17] 38.5 µM

O=C(O)[C@@H](NS(=O)(=O)c1ccc(F)cc1)c1ccccc1
inactive: [2] > 100 µM | [4] > 100 µM | [5] > 100 µM | [6] > 100 µM | [7] > 100 µM | [8] > 100 µM | [9] > 100 µM | [10] > 100 µM | [11] > 100 µM | [12] > 100 µM | [14] > 100 µM | [15] > 100 µM | [16] > 100 µM | [17] > 100 µM

C=CCc1cc(OC)c2c(c1)C(OC(C)=O)CC(c1ccc(OC)c(OC)c1)O2 (stereo not given)
inactive: [2] > 100 µM | [3] 23.4 µM | [4] > 100 µM | [6] 46.7 µM | [7] > 100 µM | [11] > 100 µM | [12] 67.3 µM | [13] > 100 µM | [14] 63.1 µM | [15] 60.5 µM | [16] > 100 µM | [17] > 100 µM

C=C(N=[N+]=[N-])c1cn(C2CC(O)C(CO)O2)c(=O)[nH]c1=O (stereo not given)
inactive: [2] > 100 µM | [3] > 100 µM | [4] > 100 µM | [5] > 100 µM | [6] > 100 µM | [7] > 100 µM | [8] > 100 µM | [9] > 100 µM | [10] > 100 µM | [12] > 100 µM | [13] > 100 µM | [14] > 100 µM | [15] > 100 µM | [17] > 100 µM

Cc1c(/C=N/N(C)C)oc2c1cc(O)c1ncccc12
inactive: [1] 25.8 µM | [2] 35.8 µM | [3] 10.7 µM | [4] 3.86 µM | [5] 4.5 µM | [6] 3.61 µM | [7] 2.38 µM | [8] 4.07 µM | [9] 5.05 µM | [10] 5.97 µM | [11] 4.01 µM | [12] 9.91 µM | [13] 2.77 µM | [14] 28.8 µM | [15] 13.1 µM | [16] 5.36 µM | [17] 2.08 µM

COc1ccc(Cc2c3cc(OC)c(OC)cc3cc[n+]2C)cc1
inactive: [1] > 100 µM | [2] 5.21 µM | [3] 23.1 µM | [4] 34.4 µM | [5] > 14.2 µM | [6] 8.3 µM | [7] 19.9 µM | [8] 6.85 µM | [9] 24.5 µM | [10] > 25.6 µM | [11] 4.7 µM | [12] 5.73 µM | [13] 2.2 µM | [14] > 52.5 µM | [15] 13.5 µM | [16] 20.4 µM | [17] > 34 µM

Nc1nc(SCc2ccccc2Cl)c2[nH]cnc2n1
inactive: [1] 15 µM | [2] 91.6 µM | [4] 50.2 µM | [5] 44.2 µM | [6] 66.1 µM | [7] 56.4 µM | [8] 55.7 µM | [9] > 100 µM | [10] 23.1 µM | [11] 58.7 µM | [12] 58.6 µM | [13] 64.9 µM | [14] 18.8 µM | [15] 65.3 µM | [16] 56 µM | [17] 77.6 µM

CCOC(=O)C(=O)NCCCN1CCOCC1
inactive: [1] > 100 µM | [2] > 100 µM | [3] > 100 µM | [4] > 100 µM | [5] > 100 µM | [6] > 100 µM | [7] > 100 µM | [8] > 100 µM | [10] > 100 µM | [11] > 100 µM | [12] > 100 µM | [14] > 100 µM | [15] > 100 µM | [16] > 100 µM | [17] > 100 µM

COC(=O)c1ccccc1NC(=O)C(=O)CC(=O)CC(c1ccccc1)c1c(O)c2ccccc2oc1=O (stereo not given)
inactive: [1] 47.4 µM | [2] > 100 µM | [4] > 10 µM | [6] > 100 µM | [7] > 100 µM | [8] > 100 µM | [9] > 100 µM | [10] > 100 µM | [11] > 100 µM | [12] > 100 µM | [13] > 100 µM | [14] > 100 µM | [16] > 100 µM | [17] > 100 µM

Cc1cccc(C(=O)c2cccc3ccccc23)c1C(=O)O
inactive: [1] > 100 µM | [2] 23.3 µM | [3] > 100 µM | [4] > 100 µM | [5] > 100 µM | [6] > 100 µM | [7] > 100 µM | [8] > 100 µM | [9] > 100 µM | [10] > 100 µM | [11] > 100 µM | [12] > 100 µM | [14] > 100 µM | [15] > 100 µM | [16] > 100 µM | [17] > 100 µM

COc1ccc(/C=C/c2cc(OC)c(OCc3ccccc3)c(OC)c2)cc1
inactive: [1] > 100 µM | [2] > 100 µM | [3] 89.7 µM | [4] > 100 µM | [6] 64 µM | [7] > 100 µM | [8] > 100 µM | [9] 57.9 µM | [11] > 100 µM | [13] 26.4 µM | [15] > 100 µM | [16] 99.1 µM | [17] 52.1 µM
